Results as given in the supplement of paper PMC11208160.

Assay: recombinant barcode read abundance after kanamycin selection (control-corrected) (log10(CPM+1)); higher = more efficient recombination; sequences stand for … in AGTGCAGAGAAAATCGGCCAGTTTTCTCTGCCTGCAGTCCGCATGCCGT…AGATTTATGCAGCGGACTGCCTTTCTCCCAAAGTGATAAACCGGACAGTATCATGGACCGGTTTTCCCGGTAATCCGTATTTGCAAGGTTGGTTTCACT; site = the 11-nt target
Method in brief: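 Targets were screened in pooled form in E. coli against IS621 bridge RNA target-binding loops. Recombination efficiency is based on barcode counts at recombinant junctions in counts per million, averaged and corrected for the control. Numbers are shown as log10(CPM+1), with duplicate plates on chloramphenicol/ampicillin LB agar (control) or chloramphenicol/ampicillin/kanamycin with 0.1 mM IPTG.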
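Also: IS621 recombinase and bridge RNA in Escherichia coli cells.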

Sequence	recombinant barcode read abundance (log10)
TGTACCTCTTGGGTTCTAACCTGTTGCCT (site TGTACCTCTAG)	0.522
TGTACCTCTTGGGTTCTAACCTGTTGCCT (site TGTCCCTCTAG)	0.00782
TGTACCTCTTGGGTTCTAACCTGTTGCCT (site TGTGCCTCTAG)	0.0235
TGTACCTCTTGGGTTCTAACCTGTTGCCT (site TGTTCCTCTAG)	0.0524
TGTACGCCTTGGGTTCTAACCTGTTGCCT (site GAGGTAACTGT)	0.0511
TGTACGCCTTGGGTTCTAACCTGTTGCCT (site TGTACGCCTAG)	0.0173
TGTAGGACTTGGGTTCTAACCTGTTGCCT (site AGTAGGACTAG)	0.0549
TGTAGGACTTGGGTTCTAACCTGTTGCCT (site CGTAGGACTAG)	0.142
TGTAGGACTTGGGTTCTAACCTGTTGCCT (site GGTAGGACTAG)	0.0264
TGTAGGACTTGGGTTCTAACCTGTTGCCT (site TGTAGGACTAG)	0.553
TGTAGTCCTTGGGTTCTAACCTGTTGCGT (site TGTAGTCCTAA)	0.062
TGTAGTCCTTGGGTTCTAACCTGTTGCGT (site TGTAGTCCTAC)	1.19
TGTAGTCCTTGGGTTCTAACCTGTTGCGT (site TGTAGTCCTAG)	0.293
TGTAGTCCTTGGGTTCTAACCTGTTGCGT (site TGTAGTCCTAT)	0.0925
TGTCCCGCTTGGGTTCTAACCTGTTGCCT (site TGTATCGCTAG)	0.0575
TGTCCCGCTTGGGTTCTAACCTGTTGCCT (site TGTCCCGCTAG)	0.708
TGTCCCTCTTGGGTTCTAACCTGTTGCCT (site TGTACCTCTAG)	0.014
TGTCCCTCTTGGGTTCTAACCTGTTGCCT (site TGTCCCTCTAG)	0.769
TGTCCCTCTTGGGTTCTAACCTGTTGCCT (site TGTGCCTCTAG)	0.111
TGTCCCTCTTGGGTTCTAACCTGTTGCCT (site TGTTCCTCTAG)	0.0962
TGTCGACCTTGGGTTCTAACCTGTTGCCT (site AGTCGACCTAG)	0.596
TGTCGACCTTGGGTTCTAACCTGTTGCCT (site CGTCGACCTAG)	0.113

Sequence	recombinant barcode read abundance (log10)
TGTCGACCTTGGGTTCTAACCTGTTGCCT (site GGTCGACCTAG)	0.0191
TGTCGACCTTGGGTTCTAACCTGTTGCCT (site TGTCGACCTAG)	0.709
TGTCGGACTTGGGTTCTAACCTGTTGCAG (site TGTCGGACTAT)	0.197
TGTCGGACTTGGGTTCTAACCTGTTGCAG (site TGTCGGACTCT)	1.01
TGTCGGACTTGGGTTCTAACCTGTTGCAG (site TGTCGGACTGT)	0.127
TGTCGGACTTGGGTTCTAACCTGTTGCAG (site TGTCGGACTTT)	0.041
TGTGCCTCTTGGGTTCTAACCTGTTGCCT (site TGTACCTCTAG)	0.368
TGTGCCTCTTGGGTTCTAACCTGTTGCCT (site TGTCCCTCTAG)	0.02
TGTGCCTCTTGGGTTCTAACCTGTTGCCT (site TGTGCCTCTAG)	0.564
TGTGCCTCTTGGGTTCTAACCTGTTGCCT (site TGTTCCTCTAG)	0.173
TGTTACCCTTGGGTTCTAACCTGTTGCCT (site TGGTACCCTAG)	0.0146
TGTTACCCTTGGGTTCTAACCTGTTGCCT (site TGTTACCCTAG)	0.434
TGTTAGACTTGGGTTCTAACCTGTTGCCT (site TGTTAGACTAG)	0.164
TGTTAGACTTGGGTTCTAACCTGTTGCCT (site TGTTAGTCTCG)	0.113
TGTTCATCTTGGGTTCTAACCTGTTGCCT (site TGTTCATCTAG)	0.00521
TGTTCATCTTGGGTTCTAACCTGTTGCCT (site TGTTCTTCTAG)	0.0677
TGTTCTTCTTGGGTTCTAACCTGTTGCCT (site TGTTCATCTAG)	0.0245
TGTTCTTCTTGGGTTCTAACCTGTTGCCT (site TGTTCTTCTAG)	0.12
TGTTGGCCTTGGGTTCTAACCTGTTGCCT (site TGTTGCACTAG)	0.0375
TGTTGGCCTTGGGTTCTAACCTGTTGCCT (site TGTTGGCCTAG)	0.143
TTAACTACTTGGGTTCTAACCTGTTGCTA (site TTAACTACTAA)	0
TTAACTACTTGGGTTCTAACCTGTTGCTA (site TTAACTACTCA)	0.0937

Sequence	recombinant barcode read abundance (log10)
TTAACTACTTGGGTTCTAACCTGTTGCTA (site TTAACTACTGA)	0.0479
TTAACTACTTGGGTTCTAACCTGTTGCTA (site TTAACTACTTA)	0.152
TTAACTACTTGGGTTCTAACCTGTTGCTG (site TTAACTACTAA)	0.0189
TTAACTACTTGGGTTCTAACCTGTTGCTG (site TTAACTACTCA)	0.425
TTAACTACTTGGGTTCTAACCTGTTGCTG (site TTAACTACTGA)	0.0228
TTAACTACTTGGGTTCTAACCTGTTGCTG (site TTAACTACTTA)	0.0609
TTACGCTCTTGGGTTCTAACCTGTTGCTA (site GGTTATCCTCC)	0.191
TTACGCTCTTGGGTTCTAACCTGTTGCTA (site TTACGCTCTTA)	0.621
TTACGGGCTTGGGTTCTAACCTGTTGCGG (site TTACGAGCTCC)	1.71
TTACGGGCTTGGGTTCTAACCTGTTGCGG (site TTACGCGCTCC)	0.183
TTACGGGCTTGGGTTCTAACCTGTTGCGG (site TTACGGGCTCC)	2.58
TTACGGGCTTGGGTTCTAACCTGTTGCGG (site TTACGTGCTCC)	0.189
TTACTAGCTTGGGTTCTAACCTGTTGCGT (site AGACTAGCTAC)	0.0536
TTACTAGCTTGGGTTCTAACCTGTTGCGT (site TTACTAGCTAC)	1.98
TTACTCTCTTGGGTTCTAACCTGTTGCCT (site TAACTCTCTAG)	0.127
TTACTCTCTTGGGTTCTAACCTGTTGCCT (site TCACTCTCTAG)	0.141
TTACTCTCTTGGGTTCTAACCTGTTGCCT (site TGACTCTCTAG)	0.137
TTACTCTCTTGGGTTCTAACCTGTTGCCT (site TTACTCTCTAG)	2.13
TTAGGGACTTGGGTTCTAACCTGTTGCCT (site TTAGGGACTAG)	2.18
TTAGGGACTTGGGTTCTAACCTGTTGCCT (site TTAGGGCCTAG)	0.0947
TTAGGGACTTGGGTTCTAACCTGTTGCCT (site TTAGGGGCTAG)	0.517
TTAGGGACTTGGGTTCTAACCTGTTGCCT (site TTAGGGTCTAG)	0.108

Sequence	recombinant barcode read abundance (log10)
TTAGGGGCTTGGGTTCTAACCTGTTGCCT (site TTAGGGACTAG)	0.911
TTAGGGGCTTGGGTTCTAACCTGTTGCCT (site TTAGGGCCTAG)	0.08
TTAGGGGCTTGGGTTCTAACCTGTTGCCT (site TTAGGGGCTAG)	1.51
TTAGGGGCTTGGGTTCTAACCTGTTGCCT (site TTAGGGTCTAG)	0.0155
TTAGGTCCTTGGGTTCTAACCTGTTGCAG (site TTAGATCCTAT)	0.182
TTAGGTCCTTGGGTTCTAACCTGTTGCAG (site TTAGGTCCTCT)	2.5
TTAGTAACTTGGGTTCTAACCTGTTGCCT (site CTAGTACCTAG)	0.0115
TTAGTAACTTGGGTTCTAACCTGTTGCCT (site TTAGTAACTAG)	1.21
TTAGTACCTTGGGTTCTAACCTGTTGCCT (site TTAGTACCTAG)	2.55
TTAGTACCTTGGGTTCTAACCTGTTGCCT (site TTAGTCCCTAG)	0.218
TTAGTACCTTGGGTTCTAACCTGTTGCCT (site TTAGTGCCTAG)	0.135
TTAGTACCTTGGGTTCTAACCTGTTGCCT (site TTAGTTCCTAG)	0.369
TTAGTCCCTTGGGTTCTAACCTGTTGCCG (site CTAGTCCCTCG)	1.09
TTAGTCCCTTGGGTTCTAACCTGTTGCCG (site TTAGTCCCTCG)	2.14
TTAGTGCCTTGGGTTCTAACCTGTTGCCT (site TTAGTACCTAG)	1.55
TTAGTGCCTTGGGTTCTAACCTGTTGCCT (site TTAGTCCCTAG)	0.0383
TTAGTGCCTTGGGTTCTAACCTGTTGCCT (site TTAGTGCCTAG)	2.14
TTAGTGCCTTGGGTTCTAACCTGTTGCCT (site TTAGTTCCTAG)	0.0759
TTAGTTCCTTGGGTTCTAACCTGTTGCCT (site TTAGTACCTAG)	0.146
TTAGTTCCTTGGGTTCTAACCTGTTGCCT (site TTAGTCCCTAG)	0.186
